The values that follow come from patent publication US20240108623A1, “METHODS OF TREATING CANCER WITH POZIOTINIB” (BOARD OF REGENTS, THE UNIVERSITY OF TEXAS SYSTEM, priority 2021, published 2024).

What all share (test): Ba/F3 cell drug screening, Cell Titer Glo
Common to all, as to assay type: cell-based
Background: ATP-based viability assays read luminescence as a measure of living cells.

One assay addresses T1, EGFR H773insNPH (Homo sapiens, UniProt P00533, INS773NPH).
T1 construct: expressed in transfected cells; host or cells: Ba/F3 (retroviral, pBabe-Puro based vector)
The settings on record: Ba/F3 cells expressing EGFR H773insNPH; 72 hours. Here is the method:
(§1) Ba/F3 cell generation, drug screening, and IC50 approximations. Ba/F3 cells were obtained as a gift from Dr. Gordon Mills (MD Anderson Cancer Center), and maintained in RPMI (Sigma) containing 10% FBS, 1% penicillin/streptomycin, and 10 ng/ml recombinant mIL-3 (R&D Biosystems). To establish stable Ba/F3 cell lines, Ba/F3 cells were transduced with retroviruses containing mutant EGFR plasmids for 12-24 hours. Retroviruses were generated using Lipofectamine 2000 (Invitrogen) transfections of Phoenix 293T-ampho cells (Orbigen) with pBabe-Puro based vectors listed below in Table 6. Vectors were generated by GeneScript or Bioinnovatise using parental vectors from Addgene listed below in Table 6.
(§2) After 48-72 hours of transduction, 2 μg/ml puromycin (Invitrogen) was added to Ba/F3 cell lines in complete RPMI. To select for EGFR positive cell lines, cells were stained with PE-EGFR (Biolegend) and sorted by FACS. After sorting, EGFR positive cells were maintained in RPMI containing 10% FBS, 1% penicillin/streptomycin, and 1 ng/ml EGF to support cell viability. Drug screening was performed as previously described^41,42. Shortly, cells were plated in 384-well plates (Greiner Bio-One) at 2000-3000 cells per well in technical triplicate. Seven different concentrations of TKIs or DMSO vehicle were added to reach a final volume of 40 μL per well. After 72 hours, 11p L of Cell Titer Glo (Promega) was added to each well. Plates were incubated for a minimum of 10 minutes, and bioluminescence was determined using a FLUOstar OPTIMA plate reader (BMG LABTECH). Raw bioluminescence values were normalized to DMSO control treated cells, and values were plotted in GraphPad Prism. Non-linear regressions were used to fit the normalized data with a variable slope, and IC50 values were determined by GraphPad prism by interpolation of concentrations at 50% inhibition. Drug screens were performed in technical triplicate on each plate and either duplicate or triplicate biological replicates. Mutant to WT ratios (Mut/WT) for each drug were calculated by dividing the IC50 values of mutant cell lines by the average IC50 value of Ba/F3 cells expressing WT EGFR supplemented with 10 ng/ml EGF for each drug. Statistical differences between groups were determined by ANOVA as described in the figure legends.

For another assay, the target named is T2, EGFR R776C (Homo sapiens, UniProt P00533, R776C).
T2 construct: host or cells: Ba/F3 (retroviral transduction, pBabe-Puro based vectors)
The conditions noted are these: Ba/F3 cells expressing EGFR R776C; 72 hours. Here is the method:
as §1, §2

For a further assay, the target named is T3, EGFR E709_T710del insD (Homo sapiens, UniProt P00533, DEL709-709/T710D).
T3 construct: expressed in transfected cells; host or cells: Ba/F3 (retroviral transduction, pBabe-Puro based vectors)
The settings on record: Ba/F3 cells expressing EGFR E709_T710del insD; 72 hours. Here is the method: as §1, §2

For another assay, the target named is T4, EGFR Ex19del T790M L718V (Homo sapiens, UniProt P00533, DEL746-750/L718V/T790M).
T4 construct: expressed in transfected cells; host or cells: Ba/F3 (retroviral transduction, pBabe-Puro based vectors)
The conditions noted are these: Ba/F3 cells expressing EGFR Ex19del T790M L718V; 72 hours. Here is the method:
as §1, §2

The next assay has as its target T5, EGFR V769L (Homo sapiens, UniProt P00533, V769L).
T5 construct: expressed in transfected cells; host or cells: Ba/F3 (retroviral transduction, pBabe-Puro based vectors)
The conditions noted are these: Ba/F3 cells expressing EGFR V769L; 72 hours. On the procedure:
as §1, §2

The target of a further assay is T6, EGFR S768I V774M (Homo sapiens, UniProt P00533, S768I/V774M).
T6 construct: host or cells: Ba/F3 (retroviral transduction, pBabe-Puro based vectors)
The settings on record: Ba/F3 cells expressing EGFR S768I V774M; 72 hours. On the procedure: as §1, §2

Another assay deals with T7, EGFR L858R/L792H (Homo sapiens, UniProt P00533, L792H/L858R).
T7 construct: expressed in transfected cells; host or cells: Ba/F3 (retroviral transduction, pBabe-Puro based vectors)
The settings on record: Ba/F3 cells expressing EGFR L858R/L792H; 72 hours. On the procedure:
as §1, §2

Another assay deals with T8, EGFR K757R (Homo sapiens, UniProt P00533, K757R).
T8 construct: expressed in transfected cells; host or cells: Ba/F3 (retroviral transduction, pBabe-Puro based vectors)
The settings on record: Ba/F3 cells expressing EGFR K757R; 72 hours. Here is the method:
as §1, §2

The target of the next assay is T9, EGFR L833F (Homo sapiens, UniProt P00533, L833F).
T9 construct: expressed in transfected cells; host or cells: Ba/F3 (retroviral, pBabe-Puro based vector)
The settings on record: Ba/F3 cells expressing EGFR L833F; 72 hours. Here is the method: as §1, §2

The next assay addresses T10, EGFR T725M (Homo sapiens, UniProt P00533, T725M).
T10 construct: expressed in transfected cells; host or cells: Ba/F3 (retroviral, pBabe-Puro based vector; created by GeneScript from EGFR WT)
The conditions noted are these: Ba/F3 cells expressing EGFR T725M; 72 hours. Here is the method:
as §1, §2

Another assay addresses T11, EGFR A763insFQEA (Homo sapiens, UniProt P00533, INS763FQEA).
T11 construct: expressed in transfected cells; host or cells: Ba/F3 (retroviral, pBabe-Puro based vector)
The conditions noted are these: Ba/F3 cells expressing EGFR A763insFQEA; 72 hours. On the procedure:
as §1, §2

For another assay, the target named is T12, EGFR G724S (Homo sapiens, UniProt P00533, G724S).
T12 construct: expressed in transfected cells; host or cells: Ba/F3 (retroviral transduction, pBabe-Puro based vectors)
The conditions noted are these: Ba/F3 cells expressing EGFR G724S; 72 hours. Here is the method:
as §1, §2

In the next assay the target is T13, EGFR L858R (Homo sapiens, UniProt P00533, L858R).
T13 construct: expressed in transfected cells; host or cells: Ba/F3 (retroviral, pBabe-Puro based vector)
The conditions noted are these: Ba/F3 cells expressing EGFR L858R; 72 hours. On the procedure:
as §1, §2

In the next assay the target is T14, EGFR L858R T790M L718V (Homo sapiens, UniProt P00533, L718V/L858R/T790M).
T14 construct: expressed in transfected cells; host or cells: Ba/F3 (retroviral transduction, pBabe-Puro based vectors)
The conditions noted are these: Ba/F3 cells expressing EGFR L858R T790M L718V; 72 hours. On the procedure:
as §1, §2

In a further assay the target is T15, EGFR G719S (Homo sapiens, UniProt P00533, G719S).
T15 construct: expressed in transfected cells; host or cells: Ba/F3 (retroviral transduction, pBabe-Puro based vectors)
The settings on record: Ba/F3 cells expressing EGFR G719S; 72 hours. On the procedure: as §1, §2

A further assay has as its target T16, EGFR G719A L861Q (Homo sapiens, UniProt P00533, G719A/L861Q).
T16 construct: expressed in transfected cells; host or cells: Ba/F3 (retroviral transduction, pBabe-Puro based vectors)
The conditions noted are these: Ba/F3 cells expressing EGFR G719A L861Q; 72 hours. Here is the method:
as §1, §2

Take `C=CC(=O)N1CCC(Oc2cc3c(Nc4ccc(Cl)c(Cl)c4F)ncnc3cc2OC)CC1` [Poziotinib]: on EGFR H773insNPH, the “Response of Cells Comprising Ex20ins EGFR Mutations to Poziotinib” value is on record as 0.3855. Moreover, the “Response of Cells Comprising PACC EGFR Mutations to Second-Generation TKIs” value was found to be 0.03049 at EGFR R776C; 0.06231 on EGFR E709_T710del insD; 0.05673 on EGFR V769L; 0.1181 at EGFR S768I V774M; 0.07789 on EGFR L858R/L792H; 0.07563 on EGFR K757R. In addition, the “Response of Cells Comprising PACC EGFR Mutations to Second-Generation TKIs” value stood at 0.2246 on EGFR G724S, 0.04616 on EGFR G719S and 0.09492 at EGFR G719A L861Q. Besides, the “Response of Cells Comprising T790M-like-S EGFR Mutations to Second-Generation TKIs” value on EGFR Ex19del T790M L718V came out at 15.89. Further, the “Response of Cells Comprising Classical-Like EGFR Mutations to Second-Generation TKIs” value came out at 0.01839 on EGFR L833F, 0.003297 at EGFR T725M, 0.06955 on EGFR A763insFQEA and 0.02579 on EGFR L858R. Moreover, the “Response of Cells Comprising T790M-like-R EGFR Mutations to Second-Generation TKIs” value at EGFR L858R T790M L718V amounted to 33.63.
